Experiments:
Type in all cases: biochemical
VEGFR-2 = target: T1, VEGFR-2 (Homo sapiens, UniProt P35968); assay: VEGFR-2 kinase assay; conditions: kinase inhibition, Table 3; read-out: VEGFR2 (IC50)
T1 construct: The kinase domain of the enzyme was purified to homogeneity from a baculovirus expression system; made in house
Experimental: The peptide substrate used in the VEGFR-2 assay was biotin-aminohexyl-[…]-NH2. The kinase domain of the enzyme was purified to homogeneity from a baculovirus expression system. The enzyme was preactivated on ice for 15 min in the presence of 100 μM ATP and 20 mM MgCl2, and stored at −80° C. until needed for assay. The activated enzyme was diluted to 0.4 nM into a 60 μl reaction containing 100 mM HEPES, pH 7.5, 5 μM ATP, 10 mM MgCl2, 5 μM peptide, 0.1 mM DTT, 0.05 mg/ml BSA, and an inhibitor at varying concentrations. The controls were reactions in the presence (negative controls) or absence (positive controls) of 50 mM EDTA. Reactions were incubated for 30 min at room temperature, and then quenched by the addition of EDTA to 60 mM in 210 μl. The quenched samples (190 μl) were transferred to a neutravidin-coated plate (Pierce) and incubated at room temperature for 40 min to allow biotinylated peptide to bind to the neutravidin. The unbound components of the reaction were removed by washing with a plate washer, then 200 μl HRP-PY20 anti-phosphotyrosine antibody conjugate was added to each well. After incubation for 40 min, the plate was washed to remove any unbound anitbody. A HRP substrate, K-blue (Neogen) was added and the reaction was quenched with Red Stop (Neogen) after 20 min. The absorbance of the wells was read at A650 in a plate reader. IC50 values were obtained by fitting raw data to A650=VMAX*(1−[I]/IC50+[I])))+b, where b is background.

c-fms = target: T2, c-fms (Homo sapiens, UniProt P07333); assay: c-fms protein kinase assay; conditions: kinase inhibition, Table 3
T2 construct: The c-fms intracellular domain was expressed from a baculovirus expression system; GST (N); made in house
T2 sequence (P07333 539-972 limits assumed): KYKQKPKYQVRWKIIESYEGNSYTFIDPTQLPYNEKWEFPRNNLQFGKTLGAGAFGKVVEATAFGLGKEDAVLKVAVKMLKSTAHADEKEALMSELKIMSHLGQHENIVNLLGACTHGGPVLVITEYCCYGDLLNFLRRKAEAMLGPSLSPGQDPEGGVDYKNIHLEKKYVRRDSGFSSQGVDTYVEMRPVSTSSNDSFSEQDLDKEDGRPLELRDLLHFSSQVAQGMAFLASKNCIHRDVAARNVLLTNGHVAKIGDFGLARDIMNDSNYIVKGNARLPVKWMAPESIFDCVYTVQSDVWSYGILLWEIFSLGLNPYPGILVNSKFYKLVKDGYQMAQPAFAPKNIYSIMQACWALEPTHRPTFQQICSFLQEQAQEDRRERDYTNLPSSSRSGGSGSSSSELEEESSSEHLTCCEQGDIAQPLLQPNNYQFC
Experimental: c-fms protein kinase assays utilized the peptide substrate, biotin-[…]-NH2 as the phosphoryl group acceptor. The c-fms intracellular domain was expressed from a baculovirus expression system, as an amino-terminal GST fusion protein, and purified to homogeneity using Glutathione agarose from Sigma Chemical Co. Maximum activation of the enzyme was achieved by preactivation at room temperature for 120 min in the presence of 100 μM ATP and 15 mM MgCl2, This enzyme stock was diluted to 150 nM prior to using in the assay. Typically assays were performed in white, opaque, 96-well plates in a 45 ul assay volume including 15 ul 6% DMSO, with or without compounds, 15 ul of the preactivated, diluted enzyme, and 15 ul of a substrate mixture. Reactions contained 50 mM HEPES, pH 7.5, 1.7 μM ATP, 15 mM MgCl2, 3 μM peptide, 2.5 mM DTT, 50 mM NaCl and 0.15 uCi/assay [□□^32P]ATP. The controls were reactions in the presence (negative controls) or absence (positive controls) of 50 mM EDTA. Reactions were allowed to proceed for 90 min at room temperature. The reaction products were quantified using Scintillation Proximity technolgy. The reactions were quenched by the addition of 200 ul of a solution containing 0.3 mg streptavidin SPA beads from Amersham, 50 mM EDTA, 0.1% TX-100, 50 uM ATP, in PBS, pH7.2 (phosphate buffered solution). Plates were sealed and counted in a Packard Topcount scintillation counter. IC50 values were obtained by fitting raw data to the equation y=Vmax*(1−(x/(k+x))).

CDK2 = CDK2 (Homo sapiens, UniProt P24941); assay: CDK2 substrate phosphorylation assay; conditions: kinase inhibition, Table 3
Experimental: Cyclin dependent protein kinase assays utilized the peptides Biotin-aminohexyl-[…] and Biotin-aminohexyl-[…]-NH2 as phosphoryl group acceptors. CDK2 was expressed utilizing a baculovirus expression system and was partially purified to comprise 20-80% of total protein, with no detectable competing reactions present. Typically, assays were performed by incubating enzyme (0.2-10 nM), with and without inhibitor, one of the two peptide substrates ([…]), [γ-^32P]ATP ([…]), and 10-20 mM Mg^2+ for periods of time generally within the range 10-120 min. Reactions were terminated with 0.2-2 volumes of either 20% acetic acid or 50-100 mM EDTA buffered to pH 7 (substrate consumption <20%). The buffer employed in enzyme assays was either 30 mM HEPES 7.4 containing 0.15 M NaCl and 5% DMSO, the buffer 50 mM MOPS 7.0 containing 0.15 M NaCl and 5% DMSO, or the buffer 100 mM HEPES pH 7.5 containing 0.1 mg/mL BSA and 5% DMSO. Inhibitors were diluted in 100% DMSO prior to addition into the assay. Detection of peptide phosphorylation was accomplished by scintillation counting following either collection of peptide onto phosphocellulose filters (for reactions stopped with acetic acid), collection of peptide in wells of 96 well plates coated with Streptavidin (Pierce) (reactions were stopped with EDTA), or addition of Avidin coated Scintillant impregnated beads (Scintillation Proximity Assays from Amersham; reactions were stopped with EDTA).

T1 sequence (P35968 834-1162 limits assumed, species assumed): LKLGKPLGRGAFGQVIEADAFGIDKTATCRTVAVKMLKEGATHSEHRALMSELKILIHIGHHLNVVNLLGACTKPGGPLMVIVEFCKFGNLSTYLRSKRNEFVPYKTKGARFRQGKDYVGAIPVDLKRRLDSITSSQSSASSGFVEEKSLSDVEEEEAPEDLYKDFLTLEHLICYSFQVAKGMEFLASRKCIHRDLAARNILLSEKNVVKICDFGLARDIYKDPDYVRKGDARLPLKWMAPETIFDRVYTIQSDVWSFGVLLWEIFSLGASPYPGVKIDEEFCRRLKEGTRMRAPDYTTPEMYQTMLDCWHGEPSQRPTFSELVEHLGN

IC50 (VEGFR-2) [nM]	IC50 (c-fms) [nM]	IC50 (CDK2) [nM]	Structure (SMILES)
10 to 100	1000 to 10000	10 to 100	CCOC(=O)c1cnc2c(c1)C(=CNc1ccc3cn[nH]c3c1)C(=O)N2 [Example 24, Ethyl 3-[(1H-indazol-6-ylamino)methylidene]-2-oxo-1,2-dihydro-3H-pyrrolo[2,3-b]pyridine-5-carboxylate]
100 to 1000	1000 to 10000	10 to 100	O=C1Nc2ncc(Br)cc2C1=CNc1ccc2ncccc2c1 [Example 19, 5-Bromo-3-[(6-quinolinylamino)methylidene]-1,3-dihydro-2H-pyrrolo[2,3-b]pyridin-2-one]

Reference: patent US6815439B2, “Substituted aza-oxindole derivatives” (SmithKline Beecham Corporation, priority 1999, dated 2004)
